Measured values: ChEMBL document CHEMBL1139615, “Structure-based design and synthesis of pyrazinones containing novel P1 'side pocket' moieties as inhibitors of TF/VIIa” (Bioorg Med Chem Lett, 2005)

Assays:
[1] = Inhibitory concentration against Coagulation factor Xa
[2] = Inhibitory concentration against Trypsin
[3] = Inhibitory concentration against Factor IIa
[4] = biological target: T1, Coagulation factor VII (Homo sapiens, UniProt P08709); test: Inhibitory concentration against Coagulation factor VIIa
T1 sequence (P08709 whole entry): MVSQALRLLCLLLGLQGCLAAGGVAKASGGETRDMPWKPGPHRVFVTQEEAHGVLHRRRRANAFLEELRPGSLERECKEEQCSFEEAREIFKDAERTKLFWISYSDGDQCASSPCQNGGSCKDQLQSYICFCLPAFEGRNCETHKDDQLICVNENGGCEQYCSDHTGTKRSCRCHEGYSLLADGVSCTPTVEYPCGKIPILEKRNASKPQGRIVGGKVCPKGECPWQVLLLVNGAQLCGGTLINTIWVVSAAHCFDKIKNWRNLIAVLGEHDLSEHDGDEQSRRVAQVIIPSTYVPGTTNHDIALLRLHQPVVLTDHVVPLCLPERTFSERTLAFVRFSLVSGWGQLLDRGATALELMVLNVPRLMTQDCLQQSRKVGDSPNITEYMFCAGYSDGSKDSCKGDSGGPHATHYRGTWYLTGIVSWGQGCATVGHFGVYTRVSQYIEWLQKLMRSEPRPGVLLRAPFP

| IC50 [1] [nM] | IC50 [2] [nM] | IC50 [3] [nM] | IC50 [4] [nM] | Structure (SMILES) |
| --- | --- | --- | --- | --- |
| > 30000 | 21 | 16700 | 20 | CC[C@@H](C)NC(=O)c1cc(N)cc(-c2cnc(NC(C)C)c(=O)n2CC(=O)NCc2ccc(C(=N)N)cc2C(=O)NCCN2CCOCC2)c1 |
| > 30000 | 16 | > 30000 | 21 | CC[C@@H](C)NC(=O)c1cc(N)cc(-c2cnc(NC(C)C)c(=O)n2CC(=O)NCc2ccc(C(=N)N)cc2C(=O)NCC(=O)O)c1 |
| > 30000 | 31 | 26700 | 23 | CC[C@@H](C)NC(=O)c1cc(N)cc(-c2cnc(NC(C)C)c(=O)n2CC(=O)NCc2ccc(C(=N)N)cc2C(=O)NCC(=O)OC)c1 |
| > 30000 | 15 | 6100 | 1.7 | CC[C@@H](C)NC(=O)c1cc(N)cc(-c2cnc(NC(C)C)c(=O)n2CC(=O)NCc2ccc(C(=N)N)cc2)c1 |
| > 30000 | 50 | > 30000 | 152 | CC[C@@H](C)NC(=O)c1cc(N)cc(-c2cnc(NC(C)C)c(=O)n2CC(=O)NCc2ccc(C(=N)N)cc2C(=O)O)c1 |
| > 30000 | 15 | 22600 | 12 | CC[C@@H](C)NC(=O)c1cc(N)cc(-c2cnc(NC(C)C)c(=O)n2CC(=O)NCc2ccc(C(=N)N)cc2C(=O)NCC(F)(F)F)c1 |
| > 30000 | 20 | 13700 | 6.2 | CC[C@@H](C)NC(=O)c1cc(N)cc(-c2cnc(NC(C)C)c(=O)n2CC(=O)NCc2ccc(C(=N)N)cc2C(N)=O)c1 |
| > 30000 | 28 | > 30000 |  | CC[C@@H](C)NC(=O)c1cc(N)cc(-c2cnc(NC(C)C)c(=O)n2CC(=O)NCc2ccc(C(=N)N)cc2C(=O)Nc2ccncc2)c1 |
